Laboratory results reported in patent US11833137B2, “Substituted chromenones, IRE1 inhibitors, and methods of using same” (The Wistar Institute, priority 2018, dated 2023).

Key:
[1] = test system: CD11b+/Ly6G+ granulocytic MDSCs; assay: MDSC-mediated T cell suppression assay; assay type: in vivo, mouse; settings: OT-I splenocytes, OVA peptide
Description: FIGS. 24A-24J illustrate the finding that targeting XBP-1s in CLL cells of MD4^+/−/Eμ-TCL1^+/+ mice leads to reduced production of sIgM, and decreased numbers and function of granulocytic MDSCs. […]. Gated CD11c−/CD11b+ populations were analyzed for Ly6C^intermediate/Ly6G+ granulocytic MDSCs and Ly6C+/Ly6G− monocytic MDSCs. (FIG. 24C) Percentages of CD11b+ myeloid cells in the blood of MD4^+/−/Eμ-TCL1^+/+ and XBP-1^KO/MD4^+/−/Eμ-TCL1^+/+ mice were plotted as mean±SEM. (FIG. 24D) Percentages of CD11b+/Ly6C^intermediate/Ly6G+ granulocytic MDSCs in the blood of MD4^+/−/Eμ-TCL1^+/+ and XBP-1^KO/MD4^+/−/Eμ-TCL1^+/+ mice were plotted as mean±SEM. […] Gated CD11b+/Ly6C^intermediate/Ly6G+ granulocytic MDSCs were analyzed for the expression of Arg-1. (FIG. 24F) Mean fluorescence intensity (MFI) of Arg-1 in gated CD11b+/Ly6C^intermediate/Ly6G+ granulocytic MDSCs from spleens of 5 MD4^+/−/Eμ-TCL1^+/+ and 5 XBP-1^KO/MD4^+/−/Eμ-TCL1^+/+ mice was plotted as mean±SEM. […] The ^3H-thymidine uptake was measured, and the percentages of proliferation were calculated by comparing to the positive control and plotted as mean±SEM. […] The percentage of CLL cells in PBMCs for each mouse was determined by flow cytofluorometry on day 6 and day 13, and compared with the CLL burden data of the mouse on day 0 (100%). […]

[2] = test system: XBP-1s expression, 5TGM1 cells; assay: XBP-1s immunoblot in 5TGM1 multiple myeloma cells; assay type: cell-based, mouse
How it was run: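 5TGM1 mouse myeloma cells, with constitutively active IRE1/XBP-1, grown in RPMI 1640 with 10% FBS and β-ME at 37° C. Lysed in RIPA buffer, protein by BCA, then SDS-PAGE, nitrocellulose transfer, immunoblot with HRP secondaries and chemiluminescent detection.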

[3] = test system: XBP-1s expression, CD5+ CLL cells from Eμ-TCL1 mice; settings: cited from earlier work

Structure (SMILES): O=c1oc2c(C3OCCCO3)c(O)ccc2c2c1CNCC2 [Compound 4, 7-(1,3-dioxan-2-yl)-8-hydroxy-1,2,3,4-tetrahydro-5H-chromeno[3,4-c]pyridin-5-one]
- suppression of T cell proliferation by MDSCs from injected mice [1]: lost their immunosuppressive function
- suppression of XBP-1s expression, long term ([2]; 10 μM for a course of 3 days): continuously suppressed even after 3-day treatment
- concentration that effectively blocks XBP-1s expression ([2]; 24 h): 5 µM
- suppression of XBP-1s expression ([2]; 24 h, at 5 μM): more potent than 5
- expression of XBP-1s in CLL cells [3]: can inhibit the expression of XBP-1s in CLL cells
